{
  "source": "patent US5583138A",
  "about": "“17β-substituted 4-azaandrostane derivatives, pharmaceutical compositions containing them and process for preparing same” (Richter Gedeon Vegyeszeti Gyar Rt., priority 1992, dated 1996)",
  "molecular_target": "T1, steroid 5α-reductase enzyme (Homo sapiens, UniProt P31213)",
  "T1 construct": "Frozen human hyperplastic prostate was used for preparation of the enzyme; from tissue; host or cells: human hyperplastic prostate (frozen), sediment of 100000×g ultracentrifugation",
  "T1 sequence (P31213 1-254)": "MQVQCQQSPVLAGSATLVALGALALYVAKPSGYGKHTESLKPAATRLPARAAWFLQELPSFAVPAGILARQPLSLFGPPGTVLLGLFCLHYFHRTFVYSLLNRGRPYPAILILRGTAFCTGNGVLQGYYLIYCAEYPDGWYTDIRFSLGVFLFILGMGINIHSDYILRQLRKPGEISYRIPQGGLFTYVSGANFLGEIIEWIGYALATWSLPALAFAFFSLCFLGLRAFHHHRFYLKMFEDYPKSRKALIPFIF",
  "experiment": "5α-reductase inhibition: conversion of [3H]-testosterone to DHT and androstanediol by enzyme from human hyperplastic prostate",
  "format": "biochemical",
  "settings": "0.5 μM [3H]-testosterone, 500 μM NADPH, pH=5.1, 37° C., 10 minutes, read-out: IC50 (concentration decreasing the percentage conversion of testosterone by 50% in comparison to the control value)",
  "data": [
    {"compound": "CC1CCCC(C)N1C(=O)[C@H]1CC[C@H]2[C@@H]3CC[C@H]4NC(=O)C=C[C@]4(C)[C@H]3CC[C@]12C", "note": "(stereo partly drawn) [17β-(2,6-dimethylpiperidinocarbonyl)-3-oxo-4-aza-5α-androst-1-ene]", "values": [
      {"measurement": "IC50", "result": 8.59, "unit": "nM"}
    ]},
    {"compound": "C[C@]12C=CC(=O)N[C@@H]1CC[C@@H]1[C@@H]2CC[C@]2(C)[C@@H](C(=O)N3CCCCCCC3)CC[C@@H]12", "note": "[17β-(heptamethyleneiminocarbonyl)-3-oxo-4-aza-5α-androst-1-ene]", "values": [
      {"measurement": "IC50", "result": 8.64, "unit": "nM"}
    ]},
    {"compound": "C[C@]12C=CC(=O)N[C@@H]1CC[C@@H]1[C@@H]2CC[C@]2(C)[C@@H](C(=O)N3CCCCCC3)CC[C@@H]12", "note": "[17β-(hexamethyleneiminocarbonyl)-3-oxo-4-aza-5α-androst-1-ene]", "values": [
      {"measurement": "IC50", "result": 13.1, "unit": "nM"}
    ]},
    {"compound": "CC(C)(C)NC(=O)[C@H]1CC[C@H]2[C@@H]3CC[C@H]4NC(=O)C=C[C@]4(C)[C@H]3CC[C@]12C", "note": "[MK-906, 17β-[N-(1,1-Dimethylethyl)carbamoyl]-3-oxo-4-aza-5α-androst-1-ene, reference compound]", "values": [
      {"measurement": "IC50", "result": 18.4, "unit": "nM"}
    ]}
  ]
}
